IC50 data for 67 compounds are collected here from PubChem BioAssay AID624344 (Sanford-Burnham Center for Chemical Genomics, 2012).

In test [1] the test system is Cytotoxicity. Kind of test: inhibitors of PAF-induced NFkB signaling in CF airway cells, dose response, cell-based, uHTS hits, panel, cytotoxicity readout (AID 624344). The following applies: CF bronchial epithelial cells, mean of runs.
Experiment in test [2]: as above
The settings on record: CF bronchial epithelial cells, PAF-induced NFkB reporter inhibition; with PAF, mean of runs.

Activity calls are given as the source filed them. How the calls were made is not given here.

As for `COc1ccc(-n2nnnc2C(CCc2ccccc2)N2CCC(n3c(=O)[nH]c4ccccc43)CC2)cc1` (stereo unspecified), the IC50 in test [1] is 11.1 µM; in test [2] it was 6.25 µM. On to `c1ccc(-c2nc3nonc3nc2-c2ccccc2)cc1`, for which the IC50 in test [1] is 45.4 µM; in test [2], 12.2 µM. Turning to `CCCCCCCCCCCCCCC(O)C[N+](C)(CCO)CCO` (stereo unspecified), the IC50 in test [1] was 5.47 µM; in test [2], 4.61 µM. In the same order, the values of `C=C1C(=O)O[C@@H]2[C@H]1CC[C@H](C)[C@]1(O)CCC(=O)[C@@]21C` are 40 µM and 2.37 µM.

On to `Cc1cccc(NC(=O)c2cc(-c3ccc(C)s3)nc3ccccc23)n1`, for which the IC50 in test [1] is 42.4 µM; in test [2] it was 5.26 µM.

In the case of `COc1ccc(-n2nnnc2C(CCSC)N2CCC(n3c(=O)[nH]c4ccccc43)CC2)cc1` (stereo unspecified), the IC50 was 13.7 µM in test [1] and 6.48 µM in test [2]. The corresponding values for `Cc1ccc(S(=O)(=O)Nc2cccc3ncccc23)s1` are > 79 µM (inactive) and 1.48 µM. As to `CCCn1c(-c2nonc2N)nc2ccccc21`, the IC50 in test [1] was 31.6 µM; in test [2] it was 4.28 µM. The corresponding values for `O=C(Nc1ccc(F)cc1)Nc1ccc(N2CCCC2)c(S(=O)(=O)Nc2ccccc2Cl)c1` are 42.5 µM and 7.2 µM. Regarding `Cc1cccc(Nc2ncnc3ccc(Br)cc23)c1`, the IC50 in test [1] was 13.1 µM; in test [2] it was 3.93 µM. In the same order, the values of `CC(=O)c1c(C)n(C2CCCCC2)c2ccc(O)cc12` are > 79 µM (inactive) and 0.797 µM. With `COC1(OC)C=CC(=O)C=C1NC(=O)c1ccccc1OC(C)=O`, the figures for the IC50 in test [1] and in test [2] were 15.2 µM and 4.11 µM, respectively.

With `O=C(Oc1cc2oc(=O)cc(-c3ccccc3)c2cc1Cl)C1CCCCC1`, the IC50 is 30.6 µM in test [1] and 2.22 µM in test [2]. Consider `CN1CCN(S(=O)(=O)c2ccc(Sc3nnnn3-c3ccccc3)c([N+](=O)[O-])c2)CC1`, for which the IC50 is 3.12 µM in test [1] and 2.06 µM in test [2]. In the same order, the values of `C=CC[C@@H](CC(=O)N[C@H](CO)Cc1ccccc1)C(=O)NC[C@H](OC(=O)[C@@H](CC=C)Cc1ccc(F)cc1)c1ccccc1` are 8.91 µM and 5.6 µM. As for `COc1ccc(C(=O)Nc2cccc(NC(=O)c3ccc(OC)c(OC)c3)n2)cc1OC`, the IC50 in test [1] was 1.49 µM; in test [2], 3.69 µM. In the case of `CCN1CCN(Cc2ccc(NC(=O)c3ccc(C)c(NC(=O)c4cccc5[nH]ccc45)c3)cc2C(F)(F)F)CC1`, the figures for the IC50 in test [1] and in test [2] were 47.7 µM and 7.33 µM, respectively. `CCc1cc(-c2[nH]ncc2-c2ccc(OC)cc2)c(O)cc1O`: the values for the IC50 in test [1] and in test [2] were 31 µM and 3.56 µM, respectively. In the same order, the values of `O=C(c1[nH]c(C(F)(F)F)nc1-c1ccccc1)N1CCN(c2c(Cl)cncc2Cl)CC1` are > 79 µM (inactive) and 10.4 µM. In the same order, the values of `C[C@@H]1CN([C@H](C)CO)C(=O)c2cc(NC(=O)Nc3ccc(C(F)(F)F)cc3)ccc2O[C@H]1CN(C)S(=O)(=O)c1ccccc1` are 77.2 µM (inactive) and 9.21 µM.

Turning to `O=C(Nc1cccc(Cl)c1)Nc1cc(S(=O)(=O)N2CCCCC2)ccc1Cl`, the IC50 in test [1] is 9.07 µM; in test [2] it was 6.4 µM. The corresponding values for `COc1ccc(-c2csc(/C(C#N)=C\c3ccc(O)c([N+](=O)[O-])c3)n2)cc1OC` are 45.9 µM and 2.82 µM. As to `NC(=O)c1c(Br)n(C2OC(CO)C(O)C2O)c2ncnc(N)c12` (stereo unspecified), the IC50 in test [1] was 3.07 µM; in test [2], 2.03 µM.

On to `COc1ccc(-c2cn[nH]c2-c2ccc(OC)cc2O)cc1`, for which the IC50 was 46.4 µM in test [1] and 2.92 µM in test [2].

For the compound `Cc1cccc(N2CCN(C(=O)CCn3c(=S)[nH]c4cc5c(cc4c3=O)OCO5)CC2C)c1` (stereo unspecified), the values for the IC50 in test [1] and in test [2] were 18.5 µM and 6.2 µM, respectively. Consider `O=[N+]([O-])c1ccc(Oc2ccc(F)cc2Br)c2ccncc12`, for which the IC50 in test [1] was 38.6 µM; in test [2], 3.97 µM.

Regarding `CCC(C)Oc1cc(-c2ccnc(Nc3cccc(Cl)c3)n2)ccn1` (stereo unspecified), the values for the IC50 in test [1] and in test [2] were 5.62 µM and 3.28 µM, respectively. In the same order, the values of `Cc1ccc2c(c1)C(=O)C(=O)N2Cc1ccc(Br)cc1` are > 79 µM (inactive) and 19.1 µM. Consider `Cc1nn(-c2ccccc2)c(Cl)c1C(=O)N1CCN(c2ncnc3c2cnn3-c2ccccc2)CC1`, for which the IC50 in test [1] is 1.42 µM; in test [2], 3.18 µM. The corresponding values for `CCOC(=O)c1c(-c2ccccc2)oc2cc(Br)c(O)c(C=O)c12` are 13.3 µM and 3.05 µM. The corresponding values for `O=C(NCCCSc1ccccc1)c1cc(Br)ccc1O` are 3.05 µM and 4.8 µM.

For the compound `Cc1ccc(CNc2ncnc3ccc(-c4ccc(CO)o4)cc23)o1`, the IC50 in test [1] was 3.77 µM; in test [2] it was 0.898 µM.

As to `Cc1cnc(NC(=O)C2CC(=O)N(c3cccc(Cl)c3)C2)s1` (stereo unspecified), the IC50 was 29.1 µM in test [1] and 3.18 µM in test [2].

Regarding `CCC1(O)C(=O)OCc2c1cc1n(c2=O)Cc2cc3cc(O)ccc3nc2-1` (stereo unspecified), the IC50 is 1.09 µM in test [1] and 0.284 µM in test [2].

With `Cc1nn(-c2ccccc2)c(N2CCCC2)c1/C=N/NC(=O)c1cc(-c2ccccc2)nc2ccccc12`, the IC50 is 58.7 µM (inactive) in test [1] and 5.62 µM in test [2]. Regarding `CN(C)CCCN(C(=O)CCOc1ccccc1)c1nc2c(F)cccc2s1`, the IC50 in test [1] was 24.6 µM; in test [2], 5.63 µM. In the case of `O=S1(=O)CC=C(CSC(=S)NC2CCS(=O)(=O)C2)C1` (stereo unspecified), the IC50 in test [2] was 3.05 µM. Take `C=C1C(=O)O[C@@H]2[C@H]3O[C@]3(C)CC/C=C(\C)CC[C@@H]12`: the IC50 was 18.1 µM in test [1] and 3.59 µM in test [2].

With `CC(=O)Nc1ccc(NC(=O)C(C)OC(=O)c2ccccc2C(=O)c2ccc(Cl)c([N+](=O)[O-])c2)cc1` (stereo unspecified), the IC50 in test [1] is 45.2 µM; in test [2] it was 15.3 µM.

For `COc1ccc(/C=N/Nc2nc(-c3cccnc3)nc3ccccc23)cc1OC`, the IC50 is 8.04 µM in test [1] and 3 µM in test [2]. Consider `O=C(Nc1nnc(C(F)(F)F)s1)c1ccc(Br)s1`, for which the IC50 in test [1] is 27.8 µM; in test [2] it was 2.28 µM. In the same order, the values of `COc1ccccc1-n1nnnc1S(=O)(=O)Cc1ccc(Cl)cc1` are 2.44 µM and 1.28 µM.

On to `CCOC(=O)/C=c1/s/c(=C\c2c(OC)ccc3ccccc23)c(=O)n1CC(=O)NCC1CCCO1` (stereo unspecified), for which the IC50 in test [1] and in test [2] was > 79 µM (inactive) in each case. Regarding `COc1cc(C2c3cc4c(cc3C3OC(=O)C2C3CO)OCO4)cc(OC)c1OC` (stereo unspecified), the IC50 in test [1] was > 79 µM (inactive). Also, the IC50 result in test [2] is “inactive”. In the same order, the values of `CC1(O)CC(c2ccc(Cl)cc2)=NN1C(=O)c1ccc(Cl)cc1` (stereo unspecified) are 14 µM and 5.49 µM.

Consider `Cc1cccc(C)c1NS(=O)(=O)c1ccc(-c2cnc(C3CC3)o2)cc1`, for which the IC50 was 35 µM in test [1] and 11.8 µM in test [2]. As for `Cc1csc(CNc2ncnc3ccc(-c4ccoc4)cc23)c1`, the results for the IC50 in test [1] and in test [2] were 13.8 µM and less than 0.3 µM, respectively. In the same order, the values of `COc1ccc(-c2csc(NC3OC(=O)c4c3ccc(OC)c4OC)n2)cc1OC` (stereo unspecified) are > 79 µM (inactive) and 3.12 µM. In the same order, the values of `CCOC(=O)Oc1c(OC)cc(C(=O)O[C@@H]2C[C@@H]3CN4CCc5c([nH]c6cc(OC)ccc56)[C@H]4C[C@@H]3[C@H](C(=O)OC)[C@H]2OC)cc1OC` are 58.8 µM (inactive) and 4.91 µM.

Consider `C[C@H]1CCCC(=O)CCC/C=C/c2cc(O)cc(O)c2C(=O)O1`, for which the IC50 in test [1] was 25.9 µM; in test [2] it was 14 µM.

On to `COc1ccc(-n2c(C)cc3cc(OC(C)=O)ccc32)cc1`, for which the IC50 in test [1] is > 79 µM (inactive); in test [2], 9.18 µM. With `C/C(=N/NC(=O)c1cccs1)c1ccc(NC(=O)COc2ccc(Cl)cc2)cc1`, the IC50 in test [1] is 26.5 µM. Also, the IC50 result in test [2] is “inactive”. `O=C(COC(=O)c1c2c(nc3ccccc13)CCN(Cc1ccccc1)C2)Nc1c(F)cccc1F`: the IC50 is 2.64 µM in test [1] and 3.28 µM in test [2].

Turning to `NC(=O)N/N=C/c1c(Sc2nnnn2-c2ccccc2)nc2ccccn2c1=O`, the 50% inhibitory concentration (IC50) in test [1] is 6.87 µM; in test [2], 0.653 µM.

For `CN(C)c1ccc(C(C(=O)NC2CCCCC2)N(Cc2ccco2)C(=O)c2snc(C(N)=O)c2N)cc1` (stereo unspecified), the IC50 in test [1] is 9.1 µM; in test [2] it was 4.04 µM.

`NC(=O)c1cc2ccc(O)cc2oc1=Nc1ccccc1`: the IC50 in test [1] is 44.8 µM; in test [2] it was 1.41 µM. In the same order, the values of `CCCNC(=O)COC(=O)c1ccccc1C(=O)c1ccc(Cl)c([N+](=O)[O-])c1` are 7.71 µM and 1.8 µM.

For `Cc1nn(-c2ccccn2)c2c1-c1nc(N)ncc1CC2`, the figures for the IC50 in test [1] and in test [2] were 65.3 µM (inactive) and 6.76 µM, respectively. As for `COc1cccc(N2CCN(c3c(C#N)c(C(F)(F)F)nn3C)CC2)c1`, the IC50 in test [1] is 58.4 µM (inactive); in test [2], 2.27 µM. Take `COCCNc1nc(Oc2cncc(Cl)c2)c2sccc2n1`: the IC50 in test [1] is 29.1 µM; in test [2] it was 2.9 µM. As to `COc1ccc(-c2cc(C(F)(F)F)nc(S(=O)(=O)CCCC(=O)Nc3cccnc3Cl)n2)cc1OC`, the IC50 in test [1] was 1.32 µM; in test [2] it was 1.44 µM. Regarding `NC(=Nc1ccccc1)NN=Cc1c[nH]c2ccccc12`, the IC50 in test [1] was 23.3 µM. In addition, in test [2], the IC50 entry is “inactive”. For the compound `Nc1ncc([N+](=O)[O-])c(N2CCCCCC2)n1`, the IC50 is > 79 µM (inactive) in test [1] and 2.28 µM in test [2]. In the same order, the values of `CC1(Cc2ccc(Cl)cc2)C(=O)Nc2ccc(-c3cccnc3)cc21` (stereo unspecified) are 26.6 µM and 1.28 µM. For `CCOC(=O)[C@@H]1[C@H]2COc3ccc(Br)cc3[C@H]2N2C(=O)N(c3ccc(C)cc3)C(=O)[C@]12C`, the IC50 in test [1] and in test [2] was > 79 µM (inactive) in each case.

Consider `O=C(N/N=C/c1ccccc1Cl)c1[nH]c2ccc(Br)cc2c1-c1ccccc1`, for which the IC50 in test [2] is 10.7 µM. Same read-out and setting: then `O=C1C=C(NC2=CC3OC(c4ccccc4)OCC3OC2=O)CCC1` (stereo unspecified), with 3.74 µM.
